Data from PubChem BioAssay AID1918933 (Molecular Pharmacology Branch, DTP, NCI, 2023).

Tested on: 186277-243-T-J2-PDC complex spheroid viability
Assay: Anticancer human tumor 186277-243-T-J2-PDC patient-derived colon adenocarcinoma cell line growth inhibition
Conditions: for IC50: curve of first compound; for viability, T/C: stronger effect = lower value
Summary of the method: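 Drug combinations with the LSD1 inhibitor iadademstat tested on tumor cells co-cultured as spheroids with endothelial cells and mesenchymal stem cells. Concentrations descended in half-log increments from clinical Cmax or 10 microM.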

[1] = second compound 0.1 µM, first compound 0.0316 µM
[2] = second compound 0.1 µM, first compound 0.1 µM
[3] = second compound 0.1 µM, first compound 0.316 µM
[4] = second compound 0.1 µM, first compound 1 µM
[5] = second compound 0.1 µM, first compound 3.16 µM
[6] = second compound 0.1 µM, first compound 10 µM
[7] = second compound 0.316 µM, first compound 0.0316 µM
[8] = second compound 0.316 µM, first compound 0.1 µM
[9] = second compound 0.316 µM, first compound 0.316 µM
[10] = second compound 0.316 µM, first compound 1 µM
[11] = second compound 0.316 µM, first compound 3.16 µM
[12] = second compound 0.316 µM, first compound 10 µM
[13] = second compound 1 µM, first compound 0.0316 µM
[14] = second compound 1 µM, first compound 0.1 µM
[15] = second compound 1 µM, first compound 0.316 µM
[16] = second compound 1 µM, first compound 1 µM
[17] = second compound 1 µM, first compound 3.16 µM
[18] = second compound 1 µM, first compound 10 µM
[19] = second compound 3.16 µM, first compound 0.0316 µM
[20] = second compound 3.16 µM, first compound 0.1 µM
[21] = second compound 3.16 µM, first compound 0.316 µM
[22] = second compound 3.16 µM, first compound 1 µM
[23] = second compound 3.16 µM, first compound 3.16 µM
[24] = second compound 3.16 µM, first compound 10 µM
[25] = second compound 10 µM, first compound 0.0316 µM
[26] = second compound 10 µM, first compound 0.1 µM
[27] = second compound 10 µM, first compound 0.316 µM
[28] = second compound 10 µM, first compound 1 µM
[29] = second compound 10 µM, first compound 3.16 µM
[30] = second compound 10 µM, first compound 10 µM
[31] = second compound 0.1 µM, first compound 0.00316 µM
[32] = second compound 0.1 µM, first compound 0.01 µM
[33] = second compound 0.316 µM, first compound 0.00316 µM
[34] = second compound 0.316 µM, first compound 0.01 µM
[35] = second compound 1 µM, first compound 0.00316 µM
[36] = second compound 1 µM, first compound 0.01 µM
[37] = second compound 3.16 µM, first compound 0.00316 µM
[38] = second compound 3.16 µM, first compound 0.01 µM
[39] = second compound 10 µM, first compound 0.00316 µM
[40] = second compound 10 µM, first compound 0.01 µM
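Note: 7 day exposure to compounds.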
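Throughout, for viability, T/C: 100% = DMSO vehicle control viability.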

`CC(C)c1c(-c2ccccc2)nc2c(C#N)c[nH]n2c1=O` + NC1CC1c1ccc(-c2cccc(O)c2)cc1 was tested, and the IC50 (second compound 0.1 µM) was > 10 µM, the IC50 (second compound 0.316 µM) was > 10 µM and the IC50 (second compound 1 µM) was > 10 µM. The IC50 (second compound 3.16 µM) was > 10 µM, the IC50 (second compound 10 µM) was > 10 µM and the viability, T/C [1] was 114%. It also gave a viability, T/C [2] of 101%, a viability, T/C [3] of 106% and a viability, T/C [4] of 85.4%. For the same molecule, the viability, T/C [5] was 88.1%, the viability, T/C [6] was 72.5% and the viability, T/C [7] was 95.9%. It also gave a viability, T/C [8] of 107%, a viability, T/C [9] of 104% and a viability, T/C [10] of 100%. It also gave a viability, T/C [11] of 85.9%, a viability, T/C [12] of 78.5% and a viability, T/C [13] of 106%. For the same molecule, the viability, T/C [14] was 99.8%, the viability, T/C [15] was 93% and the viability, T/C [16] was 96.2%. For the same molecule, the viability, T/C [17] was 95.4%, the viability, T/C [18] was 73.7% and the viability, T/C [19] was 101%. For the same molecule, the viability, T/C [20] was 106%, the viability, T/C [21] was 111% and the viability, T/C [22] was 108%. For the same molecule, the viability, T/C [23] was 96.9%, the viability, T/C [24] was 80.9% and the viability, T/C [25] was 88.9%. It also gave a viability, T/C [26] of 86%, a viability, T/C [27] of 102% and a viability, T/C [28] of 97.6%. It also gave a viability, T/C [29] of 85% and a viability, T/C [30] of 74.6%.

`COc1ccc([C@@H](O)c2cc(-c3ncnc4cc(N5CCOCC5)ccc34)c(F)cc2Cl)nn1` + NC1CC1c1ccc(-c2cccc(O)c2)cc1 showed an IC50 (second compound 0.1 µM) of 5.37 µM, an IC50 (second compound 0.316 µM) of 4.68 µM and an IC50 (second compound 1 µM) of 4.39 µM. It also gave an IC50 (second compound 3.16 µM) of 4.41 µM, an IC50 (second compound 10 µM) of 3.73 µM and a viability, T/C [1] of 105%. It also gave a viability, T/C [2] of 109%, a viability, T/C [3] of 112% and a viability, T/C [4] of 96.3%. It also gave a viability, T/C [5] of 81.8%, a viability, T/C [6] of 14% and a viability, T/C [7] of 109%. The viability, T/C [8] was 108%, the viability, T/C [9] was 110% and the viability, T/C [10] was 89.1%. It also gave a viability, T/C [11] of 70.8%, a viability, T/C [12] of 12.8% and a viability, T/C [13] of 107%. The viability, T/C [14] was 113%, the viability, T/C [15] was 114% and the viability, T/C [16] was 80.9%. The viability, T/C [17] was 68.7%, the viability, T/C [18] was 12.9% and the viability, T/C [19] was 110%. The viability, T/C [20] was 118%, the viability, T/C [21] was 97.1% and the viability, T/C [22] was 102%. It also gave a viability, T/C [23] of 64.7%, a viability, T/C [24] of 11.7% and a viability, T/C [25] of 97.7%. It also gave a viability, T/C [26] of 103%, a viability, T/C [27] of 106% and a viability, T/C [28] of 91.3%. It also gave a viability, T/C [29] of 57.8% and a viability, T/C [30] of 5.72%.

In the case of `CC[C@@]1(O)C(=O)OCc2c1cc1n(c2=O)Cc2cc3c(CN(C)C)c(O)ccc3nc2-1` + NC1CCC(NC2CC2c2ccccc2)CC1, the IC50 (second compound 0.1 µM) is reported as > 0.1 µM, the IC50 (second compound 0.316 µM) is reported as > 0.1 µM and the IC50 (second compound 1 µM) is reported as > 0.1 µM. For the same molecule, the IC50 (second compound 3.16 µM) was > 0.1 µM, the IC50 (second compound 10 µM) was > 0.1 µM and the viability, T/C (second compound 0.1 µM, first compound 0.000316 µM) was 106%. For the same molecule, the viability, T/C (second compound 0.1 µM, first compound 0.001 µM) was 99.1%, the viability, T/C [31] was 137% and the viability, T/C [32] was 131%. The viability, T/C [1] was 102%, the viability, T/C [2] was 51.8% and the viability, T/C (second compound 0.316 µM, first compound 0.000316 µM) was 111%. For the same molecule, the viability, T/C (second compound 0.316 µM, first compound 0.001 µM) was 108%, the viability, T/C [33] was 131% and the viability, T/C [34] was 132%. It also gave a viability, T/C [7] of 98.6%, a viability, T/C [8] of 52.8% and a viability, T/C (second compound 1 µM, first compound 0.000316 µM) of 107%. The viability, T/C (second compound 1 µM, first compound 0.001 µM) was 114%, the viability, T/C [35] was 137% and the viability, T/C [36] was 131%. It also gave a viability, T/C [13] of 103%, a viability, T/C [14] of 56.9% and a viability, T/C (second compound 3.16 µM, first compound 0.000316 µM) of 107%. The viability, T/C (second compound 3.16 µM, first compound 0.001 µM) was 124%, the viability, T/C [37] was 147% and the viability, T/C [38] was 134%. For the same molecule, the viability, T/C [19] was 104%, the viability, T/C [20] was 61.6% and the viability, T/C (second compound 10 µM, first compound 0.000316 µM) was 104%. It also gave a viability, T/C (second compound 10 µM, first compound 0.001 µM) of 116%, a viability, T/C [39] of 140% and a viability, T/C [40] of 131%. For the same molecule, the viability, T/C [25] was 110% and the viability, T/C [26] was 63.2%.

`COc1cc(C2c3cc4c(cc3C(OC3OC5COC(C)OC5C(O)C3O)C3COC(=O)C23)OCO4)cc(OC)c1O` (stereo not given) + NC1CCC(NC2CC2c2ccccc2)CC1 was tested, and the IC50 (second compound 0.1 µM) was 2.71 µM, the IC50 (second compound 0.316 µM) was 2.75 µM and the IC50 (second compound 1 µM) was > 3 µM. The IC50 (second compound 3.16 µM) was > 3 µM, the IC50 (second compound 10 µM) was > 3 µM and the viability, T/C (second compound 0.1 µM, first compound 0.00949 µM) was 93%. For the same molecule, the viability, T/C (second compound 0.1 µM, first compound 0.03 µM) was 125%, the viability, T/C (second compound 0.1 µM, first compound 0.0949 µM) was 144% and the viability, T/C (second compound 0.1 µM, first compound 0.3 µM) was 98.6%. The viability, T/C (second compound 0.1 µM, first compound 0.949 µM) was 74.2%, the viability, T/C (second compound 0.1 µM, first compound 3 µM) was 46.9% and the viability, T/C (second compound 0.316 µM, first compound 0.00949 µM) was 120%. For the same molecule, the viability, T/C (second compound 0.316 µM, first compound 0.03 µM) was 121%, the viability, T/C (second compound 0.316 µM, first compound 0.0949 µM) was 150% and the viability, T/C (second compound 0.316 µM, first compound 0.3 µM) was 98.7%. It also gave a viability, T/C (second compound 0.316 µM, first compound 0.949 µM) of 72.9%, a viability, T/C (second compound 0.316 µM, first compound 3 µM) of 46.1% and a viability, T/C (second compound 1 µM, first compound 0.00949 µM) of 109%. For the same molecule, the viability, T/C (second compound 1 µM, first compound 0.03 µM) was 111%, the viability, T/C (second compound 1 µM, first compound 0.0949 µM) was 150% and the viability, T/C (second compound 1 µM, first compound 0.3 µM) was 99.5%. The viability, T/C (second compound 1 µM, first compound 0.949 µM) was 71.4%, the viability, T/C (second compound 1 µM, first compound 3 µM) was 49.2% and the viability, T/C (second compound 3.16 µM, first compound 0.00949 µM) was 111%. It also gave a viability, T/C (second compound 3.16 µM, first compound 0.03 µM) of 111%, a viability, T/C (second compound 3.16 µM, first compound 0.0949 µM) of 155% and a viability, T/C (second compound 3.16 µM, first compound 0.3 µM) of 104%. The viability, T/C (second compound 3.16 µM, first compound 0.949 µM) was 77.6%, the viability, T/C (second compound 3.16 µM, first compound 3 µM) was 52.3% and the viability, T/C (second compound 10 µM, first compound 0.00949 µM) was 113%. For the same molecule, the viability, T/C (second compound 10 µM, first compound 0.03 µM) was 111%, the viability, T/C (second compound 10 µM, first compound 0.0949 µM) was 150% and the viability, T/C (second compound 10 µM, first compound 0.3 µM) was 109%. For the same molecule, the viability, T/C (second compound 10 µM, first compound 0.949 µM) was 81.5% and the viability, T/C (second compound 10 µM, first compound 3 µM) was 57.4%.

`Nc1ncn(C2CC(O)C(CO)O2)c(=O)n1` (stereo not given) + NC1CCC(NC2CC2c2ccccc2)CC1 was tested, and the IC50 (second compound 0.1 µM) was > 1 µM, the IC50 (second compound 0.316 µM) was > 1 µM and the IC50 (second compound 1 µM) was > 1 µM. For the same molecule, the IC50 (second compound 3.16 µM) was > 1 µM, the IC50 (second compound 10 µM) was > 1 µM and the viability, T/C [31] was 97.6%. It also gave a viability, T/C [32] of 110%, a viability, T/C [1] of 98.2% and a viability, T/C [2] of 129%. The viability, T/C [3] was 139%, the viability, T/C [4] was 142% and the viability, T/C [33] was 95.9%. For the same molecule, the viability, T/C [34] was 111%, the viability, T/C [7] was 107% and the viability, T/C [8] was 127%. The viability, T/C [9] was 141%, the viability, T/C [10] was 138% and the viability, T/C [35] was 102%. It also gave a viability, T/C [36] of 119%, a viability, T/C [13] of 111% and a viability, T/C [14] of 130%. It also gave a viability, T/C [15] of 127%, a viability, T/C [16] of 135% and a viability, T/C [37] of 101%. The viability, T/C [38] was 108%, the viability, T/C [19] was 112% and the viability, T/C [20] was 137%. For the same molecule, the viability, T/C [21] was 151%, the viability, T/C [22] was 138% and the viability, T/C [39] was 113%. It also gave a viability, T/C [40] of 105%, a viability, T/C [25] of 116% and a viability, T/C [26] of 140%. The viability, T/C [27] was 140% and the viability, T/C [28] was 132%.
